{"source": "patent US20170128059A1", "about": "“METHODS AND APPARATUS FOR PREVENTION OF SURGICAL SITE INFECTIONS” (priority 2015, published 2017)", "key": {"[1]": {"assay": "finite-element (COMSOL) simulation of local gentamicin delivery to a retracted surgical wound", "conditions": "calculated model parameter, adipose wound tissue", "from_the_text": "In order to better understand the differences between systemic delivery and local delivery of therapeutic agents, a finite-element analysis software package (COMSOL) was used to generate a three dimensional (3D) model of a retracted surgical wound with a 12 cm incision. […] The 3D model shown in FIG. 23 was modeled in a Computer Aided Design (CAD) package (Solidworks) based on the geometry of the device and the retracted wound tissue in a cadaver.\nGentamicin, a member of the aminoglycoside family, was used as the antibiotic in the model due to its prevalence in clinical use to combat the enteric, gram-negative bacteria that cause wound infections. A concentration of 240 mg/L was delivered during the simulated 4 hr surgery based on standard clinical protocols.\nwhere Φ, D, and C are the particle flux, diffusion coefficient, and concentration, respectively. […]\nThe diffusion coefficients of various solutes and solvents have been experimentally obtained and published. However, for solute-solvent combinations that have not been published or experimentally determined, the molecular weight of a given solute may be correlated to the diffusion coefficient in the same solvent using a logarithmic relation. […]\nThe simulation was run for four hours to mimic a standard colorectal procedure and the antibiotic flux and tissue concentration was recorded at each time step."}, "E. coli [2]": {"tested_on": "E. coli", "assay": "minimum inhibitory concentration of gentamicin, E. coli", "type": "cell-based", "from_the_text": "The extent of absorption of a fluid or solute into the tissue may be a function of the rate of fluid delivery, concentration of solutes (if any) in the delivered fluid, physical characteristics of the solutes (if any), the porosity of the tissue, tortuousity of the tissue, systemic absorption via the capillary bed and subsequent renal clearance, and/or the time period over which the surgical device and delivered fluid are in contact with the wound tissues. […] The minimum inhibitory concentration (16 mg/L) was reached are the wound surface in about 3 minutes of fluid delivery. […] The surgical device may thus be able to reduce microbial growth in wounds even after being removed, which may result in a lower risk of developing a surgical site infection.\nThe surgical device may be used to deliver a therapeutic fluid to a wound tissue to maintain a constant therapeutic concentration in the tissue. The therapeutic concentration in the tissue may be maintained for a portion of or the entire duration of the surgical procedure. The concentration of the therapeutic agent (e.g. antibiotic) may be maintained within a pre-determined range. The pre-determined concentration may depend on the type of therapeutic used as described herein. […] The therapeutic concentration may be at or above the minimum inhibitory concentration. […]"}, "E. coli [3]": {"tested_on": "E. coli", "assay": "acute abdominal surgical model with E. coli contamination, quantitative wound tissue culture", "type": "in vivo, pigs", "conditions": "E-F group", "protocol": "In the gentamicin group, the degree of systemic absorption of the antibiotic was quantified.\nSeven female adult pigs weighing 50-70 kg were placed under general anesthesia and monitored for the duration of the experimental protocol. The abdomen was shaved, sterilely prepped with chlorhexidine solution, and draped under sterile conditions. A 12-cm periumbilical midline incision was made and the abdominal cavity was entered. After approximately 2.5 hours of wound retraction to simulate a prototypical length of time for colonic dissection, a gentamicin-sensitive E. coli suspension at a standardized concentration of 10^9 colony-forming units (CFU) in 10 mL normal saline was dripped onto the central colon. E. coli is classified as an enteric bacteria species. […]\nFIGS. 28A-28B show the locations at which two swab samples were taken just prior to device removal (e.g. at Time 1). […] Colonies were identified as E. coli, enumerated, and recorded, and the results for serial dilutions were internally validated. […] Tissue culture results were expressed as colony-forming units (CFU) per gram. […]\nQuantitative culture results were expressed in mean±standard deviation (SD). Statistical comparisons of quantitative culture results were performed using the Student's t-test. Significance was determined based on a value of p<0.05."}, "[4]": {"conditions": "intravenous administration, 240 mg; cited from earlier work"}, "[5]": {"tested_on": "gram-negative bacteria present in colorectal surgeries", "conditions": "required to neutralize gram-negative bacteria present in colorectal surgeries; cited from earlier work"}, "E. coli [6]": {"tested_on": "E. coli", "conditions": "cited from earlier work"}, "[7]": {"assay": "serum and wound tissue gentamicin concentration by ELISA after local delivery through the surgical device", "conditions": "E-F group", "quoted_text": "The 7 pigs were divided into two groups each: 1. Control (n=1) where no device was used and a sham procedure was performed. 2. “Experimental-No Fluid” (E-NF) group (n=3) where the surgical device was used without any irrigation delivered through the device in order to mimic conditions with other non-irrigating surgical retractors. 3. […] The irrigation fluid was delivered via gravity drainage from an IV bag hung on a pole at a height of 6 feet, and removal of fluid from the device was achieved via wall suction into a standard surgical canister. Both the fluid delivery and fluid removal mechanisms were integrated into the surgical device via separate tubing connections. The total time of irrigation averaged approximately 4 hours.\nExperimental data was collected at two time points. Time 1 was after 4 hours of simulated surgery and/or irrigation and at the time of device removal. Time 2 was 4 hours after wound closure (e.g. at the time of wound reopening).\nIn the E-F group, peripheral blood samples were drawn by the anesthetists at Times 1 and 2. The blood was collected in serum-separator tubes and centrifuged. […] Two 4 mm×8 mm punch biopsies at each time point were taken, homogenized, and diluted in 1 mL phosphate buffered saline (PBS). The sample was centrifuged, and the supernatant was isolated for ELISA analysis."}}, "data": [{"substance": "gentamicin", "values": [{"measurement": "Effective Diffusion Coefficient", "setting": "[1]", "result": "1.88E−6", "unit": "cm^2/s"}, {"measurement": "delivered fluid concentration (240 mg/L) relative to typical minimum inhibitory concentration of E. coli", "setting": "E. coli [2]", "result": "about 60 time greater"}, {"measurement": "quantitative wound culture (E. coli) in tissue sample", "setting": "E. coli [3]; 240 mg gentamicin sulfate in 1 L saline through device, Time 1 (device removal)", "result": "1.25±1.55×10^2 CFU/gm"}, {"measurement": "quantitative wound culture (E. coli) in tissue sample", "setting": "E. coli [3]; Time 2 (4 hours after wound closure)", "result": "2.08±3.01×10^2 CFU/gm"}, {"measurement": "peak tissue concentration relative to minimum inhibitory concentration", "setting": "[4]", "result": 4.5, "unit": "times"}, {"measurement": "time of peak tissue concentration after administration", "setting": "[4]", "result": "roughly 20 minutes"}, {"measurement": "minimum inhibitory concentration (MIC)", "setting": "[5]", "result": 0.003, "unit": "mol/m^3"}, {"measurement": "minimum inhibitory concentration", "setting": "E. coli [6]", "result": 16, "unit": "µg/mL"}, {"measurement": "gentamicin concentration at the wound margins (tissue)", "setting": "[7]; Time 1, punch biopsies of subcutaneous fat", "result": "0.97 ± 0.33", "unit": "mg/kg"}, {"measurement": "gentamicin concentration at the wound margins (tissue)", "setting": "[7]; Time 2, punch biopsies of subcutaneous fat", "result": "0.60 ± 0.37", "unit": "mg/kg"}]}]}
